One compound from ChEMBL document CHEMBL5120857, “Rational design, synthesis and biological evaluation of dual PARP-1/2 and TNKS1/2 inhibitors for cancer therapy” (Eur J Med Chem, 2022) can be followed below.

Active and inactive are the calls of the source. No cut-off for these calls is given here.

Data set [1] in a line: Cytotoxicity against mouse AML12 cells assessed as reduction in cell viability incubated for 7 days by MTT assay. Type of data set: toxicity, cell-based. The note with it: time 7 day.
The nature of data set [2]: Toxicity in […] assessed as effect on body weight at 500 mg/kg, ip administered as single dose and measured on day 4 (reference value: 24.50 +/- 3.11 g). Type of data set: organism-based. The note with it: in vivo.
A short description of data set [3]: Toxicity in […] assessed as rat death administered as single dose at 500 mg/kg, ip. Type of data set: organism-based. As to conditions: in vivo.
Data set [4] in a line: Toxicity in BALB/c nude mouse xenografted with human HCT116 cells at 25 to 100 mg/kg, ip administered once daily for 28 days. Type of data set: organism-based, HCT-116. The note with it: in vivo, 672 h, dose 25-100 mg/kg, time 28 day.
Data set [5] in a line: Toxicity in […] assessed as effect on body weight at 500 mg/kg, ip administered as single dose and measured on day 7 (reference value: 26.00 +/- 3.16 g). It counts as organism-based. As to conditions: in vivo.
The nature of data set [6]: Toxicity in BALB/c nude mouse xenografted with human HCT116 cells assessed as side effects at 25 to 100 mg/kg, ip administered once daily for 28 days. As to conditions: in vivo, 672 h, dose 25-100 mg/kg, time 28 day. It counts as organism-based, HCT-116.
The test system of data set [7] is HCT-116. Briefly: Antitumor activity against human HCT-116 cells xenografted in BALB/c nude mouse assessed as tumor growth inhibition at 25 mg/kg, ip administered once daily for 28 days. It counts as functional. As to conditions: HCT-116, 672 h, time 28 day, read-out: TGI.
Data set [8] in a line: Clearance in Sprague-Dawley rat at 10 mg/kg, po or 1 mg/kg, iv. Type of data set: ADME, organism-based. The note with it: in vivo.
Data set [9] in a line: Toxicity in […] assessed as morphological changes in jejunum at 500 mg/kg, ip by H&E staining based histopathological analysis. As to conditions: in vivo. Type of data set: organism-based.
The subject of data set [10] is HCT-116. Briefly: Antitumor activity against human HCT-116 cells xenografted in BALB/c nude mouse assessed as tumor growth inhibition at 100 mg/kg, ip administered once daily for 28 days. The note with it: HCT-116, 672 h, time 28 day, read-out: TGI. It counts as functional.
Data set [11] has as its system HCT-116. The data set can be described thus: Inhibition of Wnt/beta-Catenin signaling in human HCT-116 cells assessed as decrease in active beta-catenin levels at 10 uM by Western blot analysis. Type of data set: cell-based.
Data set [12] relates to HCT-116. Briefly: Inhibition of homologous recombinant repair in human HCT-116 cells assessed as reduction in RAD51 foci formation at 1 uM incubated for 72 hrs by DAPI staining based immunofluorescence analysis. Type of data set: functional, cell-based.
Data set [13] concerns HCT-116. The data set can be described thus: Induction of cell cycle arrest in human HCT-116 cells assessed as S phase cells at 1 uM incubated for 3 days by propidium iodide staining based flow cytometry (reference value: 11.26 %). It counts as functional. The note with it: time 3 day.
Data set [14] has as its system HCT-116. The data set can be described thus: Induction of cell cycle arrest in human HCT-116 cells assessed as S phase cells at 5 uM incubated for 3 days by propidium iodide staining based flow cytometry (reference value: 11.26 %). Type of data set: functional. The note with it: time 3 day.
Data set [15] is described as follows: Toxicity in […] assessed as morphological changes in ileum at 500 mg/kg, ip by H&E staining based histopathological analysis. It counts as organism-based. The note with it: in vivo.
Data set [16] addresses T1, Poly [ADP-ribose] polymerase tankyrase-2 (Homo sapiens) (UniProt Q9H2K2).
T1 sequence (whole entry): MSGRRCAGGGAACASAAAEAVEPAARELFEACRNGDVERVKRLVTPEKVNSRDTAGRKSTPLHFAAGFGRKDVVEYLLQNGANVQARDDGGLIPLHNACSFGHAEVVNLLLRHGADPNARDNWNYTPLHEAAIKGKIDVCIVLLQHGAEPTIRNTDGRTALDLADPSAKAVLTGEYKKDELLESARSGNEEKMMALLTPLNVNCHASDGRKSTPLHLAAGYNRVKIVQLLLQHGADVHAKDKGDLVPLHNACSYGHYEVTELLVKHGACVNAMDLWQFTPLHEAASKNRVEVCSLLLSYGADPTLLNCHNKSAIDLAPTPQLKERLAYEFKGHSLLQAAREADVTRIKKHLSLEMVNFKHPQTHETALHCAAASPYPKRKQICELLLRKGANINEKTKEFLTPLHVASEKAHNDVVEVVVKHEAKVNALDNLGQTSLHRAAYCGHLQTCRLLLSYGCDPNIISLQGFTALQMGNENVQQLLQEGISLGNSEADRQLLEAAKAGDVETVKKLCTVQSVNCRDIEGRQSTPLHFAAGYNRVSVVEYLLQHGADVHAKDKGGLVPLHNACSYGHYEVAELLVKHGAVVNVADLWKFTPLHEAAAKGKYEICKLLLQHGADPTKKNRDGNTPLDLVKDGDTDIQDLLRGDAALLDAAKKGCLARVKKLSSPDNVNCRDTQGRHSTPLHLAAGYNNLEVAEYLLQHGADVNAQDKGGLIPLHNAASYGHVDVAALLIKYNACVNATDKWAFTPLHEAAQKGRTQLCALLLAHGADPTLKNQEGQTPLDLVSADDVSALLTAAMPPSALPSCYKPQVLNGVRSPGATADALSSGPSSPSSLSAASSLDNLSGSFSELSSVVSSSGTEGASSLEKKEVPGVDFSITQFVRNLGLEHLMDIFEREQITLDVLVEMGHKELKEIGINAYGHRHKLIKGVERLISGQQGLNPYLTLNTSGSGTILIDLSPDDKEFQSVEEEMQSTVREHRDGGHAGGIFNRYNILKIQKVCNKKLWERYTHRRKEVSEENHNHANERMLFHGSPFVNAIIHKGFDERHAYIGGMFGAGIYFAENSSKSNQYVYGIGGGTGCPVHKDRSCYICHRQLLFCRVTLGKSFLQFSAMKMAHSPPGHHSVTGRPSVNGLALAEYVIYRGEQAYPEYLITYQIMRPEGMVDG
As to conditions: dose 10.0 nM, time 1.0 hrs.

Data set [17] in a line: Toxicity in […] assessed as morphological changes in duodenum at 500 mg/kg, ip by H&E staining based histopathological analysis. It counts as organism-based. The note with it: in vivo.
Data set [18] deals with Protein mono-ADP-ribosyltransferase PARP14 (Homo sapiens, UniProt Q460N5). The data set can be described thus: Inhibition of PARP-14 (unknown origin).
Sequence of Protein mono-ADP-ribosyltransferase PARP14 (Q460N5 whole entry): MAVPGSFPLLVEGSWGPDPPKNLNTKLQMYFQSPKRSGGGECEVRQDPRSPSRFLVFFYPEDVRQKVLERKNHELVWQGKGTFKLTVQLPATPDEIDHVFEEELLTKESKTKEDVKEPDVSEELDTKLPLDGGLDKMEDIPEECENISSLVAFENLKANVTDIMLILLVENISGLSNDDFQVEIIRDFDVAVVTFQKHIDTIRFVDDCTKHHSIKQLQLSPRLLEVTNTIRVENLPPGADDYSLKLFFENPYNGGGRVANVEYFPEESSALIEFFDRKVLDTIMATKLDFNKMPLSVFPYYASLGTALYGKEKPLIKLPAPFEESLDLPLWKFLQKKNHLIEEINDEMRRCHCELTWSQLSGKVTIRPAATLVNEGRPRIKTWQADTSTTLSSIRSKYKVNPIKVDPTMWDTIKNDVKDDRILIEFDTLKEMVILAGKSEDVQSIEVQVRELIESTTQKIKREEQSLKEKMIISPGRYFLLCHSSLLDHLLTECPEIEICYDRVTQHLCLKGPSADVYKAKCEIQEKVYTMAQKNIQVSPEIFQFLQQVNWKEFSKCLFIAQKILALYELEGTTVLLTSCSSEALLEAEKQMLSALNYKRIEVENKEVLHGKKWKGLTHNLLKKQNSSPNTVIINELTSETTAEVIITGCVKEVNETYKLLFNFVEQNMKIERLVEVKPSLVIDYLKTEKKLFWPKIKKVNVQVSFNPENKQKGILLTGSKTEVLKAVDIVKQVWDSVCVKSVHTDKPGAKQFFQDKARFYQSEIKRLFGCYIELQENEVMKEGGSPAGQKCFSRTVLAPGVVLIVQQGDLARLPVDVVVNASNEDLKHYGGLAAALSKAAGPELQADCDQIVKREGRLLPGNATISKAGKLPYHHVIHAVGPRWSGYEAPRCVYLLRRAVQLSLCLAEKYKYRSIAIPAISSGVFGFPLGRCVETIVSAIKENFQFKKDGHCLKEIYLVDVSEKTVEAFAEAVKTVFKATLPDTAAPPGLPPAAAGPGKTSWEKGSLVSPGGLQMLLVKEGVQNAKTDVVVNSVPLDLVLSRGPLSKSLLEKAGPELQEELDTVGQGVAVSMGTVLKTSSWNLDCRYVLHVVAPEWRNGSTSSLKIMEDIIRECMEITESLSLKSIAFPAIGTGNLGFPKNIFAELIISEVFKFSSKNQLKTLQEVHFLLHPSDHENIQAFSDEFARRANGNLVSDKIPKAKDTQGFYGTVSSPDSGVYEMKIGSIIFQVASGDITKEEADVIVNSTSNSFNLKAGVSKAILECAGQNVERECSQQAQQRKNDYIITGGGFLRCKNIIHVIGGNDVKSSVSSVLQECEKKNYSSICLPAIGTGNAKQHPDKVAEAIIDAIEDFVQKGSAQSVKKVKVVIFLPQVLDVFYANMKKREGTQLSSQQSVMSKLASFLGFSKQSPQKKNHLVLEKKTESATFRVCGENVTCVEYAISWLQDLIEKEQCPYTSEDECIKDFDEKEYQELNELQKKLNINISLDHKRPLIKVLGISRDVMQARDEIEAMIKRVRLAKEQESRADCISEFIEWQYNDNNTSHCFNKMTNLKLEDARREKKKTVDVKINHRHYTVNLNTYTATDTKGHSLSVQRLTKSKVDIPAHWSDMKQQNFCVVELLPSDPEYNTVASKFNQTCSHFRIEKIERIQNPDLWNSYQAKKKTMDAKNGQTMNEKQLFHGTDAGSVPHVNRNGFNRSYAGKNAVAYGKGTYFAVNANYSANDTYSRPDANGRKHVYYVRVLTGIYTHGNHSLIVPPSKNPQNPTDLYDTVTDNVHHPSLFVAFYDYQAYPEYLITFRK
In data set [19] the test system is HCT-116. The data set can be described thus: Induction of cell cycle arrest in human HCT-116 cells assessed as G0/G1 phase cells at 5 uM incubated for 3 days by propidium iodide staining based flow cytometry (reference value: 68.35 %). It counts as functional. As to conditions: time 3 day.
A further data set has as its system MDA-MB-468. Briefly: Antiproliferative activity against human MDA-MB-468 cells assessed as inhibition of cell growth incubated for 7 days by MTT assay. Type of data set: functional, cell-based. As to conditions: MDA-MB-468, 168 h.
In data set [20] the test system is HCT-116. Briefly: Induction of apoptosis in human HCT-116 cells assessed as necrotic cells at 5 uM incubated for 3 days by annexinV-FITC/propidium iodide staining based flow cytometry (reference value: 3.65 %). Type of data set: functional. As to conditions: time 3 day.
Data set [21] relates to HCT-116. Briefly: Induction of apoptosis in human HCT-116 cells assessed as necrotic cells at 1 uM incubated for 3 days by annexinV-FITC/propidium iodide staining based flow cytometry (reference value: 3.65 %). It counts as functional. The note with it: time 3 day.
In data set [22] the test system is HCT-116. The data set can be described thus: Induction of apoptosis in human HCT-116 cells assessed as late apoptotic cells at 5 uM incubated for 3 days by annexinV-FITC/propidium iodide staining based flow cytometry (reference value: 8.71 %). The note with it: time 3 day. Type of data set: functional.
Data set [23] concerns HCT-116. Briefly: Induction of apoptosis in human HCT-116 cells assessed as late apoptotic cells at 1 uM incubated for 3 days by annexinV-FITC/propidium iodide staining based flow cytometry (reference value: 8.71 %). It counts as functional. As to conditions: time 3 day.

On to `COc1ccc(NC(=O)c2ccc(NC(=O)N3CCN(C(=O)c4cc(Cc5n[nH]c(=O)c6ccccc56)ccc4F)CC3)cc2)cc1`, for which, in [1], the CC50 at 168 h worked out at 117000 nM. Further, the Activity in data set [2] is 23 g; in [3], “Non-Toxic”; in data set [4] it was “Non-Toxic”; in data set [5], 24.25 g; in [6] it was “Non-Toxic”; in [9] it was “Non-Toxic”. Further, the Activity was 9.31% in the data set with HCT-116 [13]; 4.19% with HCT-116 [14]; “Non-Toxic” in [15]; “Non-Toxic” in data set [17]; 41.21% in the data set with HCT-116 [19]; 8.56% with HCT-116 [20]. The figures for the Activity with HCT-116 [21], in the data set with HCT-116 [22] and with HCT-116 [23] were 4.57%, 39.5% and 15.3%, respectively. Also, the inhibition in vivo at 25 mg/kg in the data set with HCT-116 [7] was 31.7%. The same compound returned a CL in [8] of 90.67 mL/min/kg. Also, the inhibition in vivo at 100 mg/kg in the data set with HCT-116 [10] worked out at 51.7%. Also, the inhibition result with HCT-116 [11] and in the data set with HCT-116 [12] was “Active” throughout. The compound also yielded an inhibition in data set [16] of 68.5%. The IC50 in data set [18] turned out to be 1370 nM; in the data set with MDA-MB-468 it was 90 nM.
